Legend:
14-3-3γ/PIN1 complex = target: T1, 14-3-3γ/PIN1 complex (Homo sapiens, UniProt P61981); experiment: FA selectivity screen, PIN1 client peptide; format: binding; details: 100 μM compound, PIN1 peptide (+1 Trp)
T1 construct: made in house; host or cells: E. coli NiCo21 (DE3)
T1 sequence (P61981 1-247): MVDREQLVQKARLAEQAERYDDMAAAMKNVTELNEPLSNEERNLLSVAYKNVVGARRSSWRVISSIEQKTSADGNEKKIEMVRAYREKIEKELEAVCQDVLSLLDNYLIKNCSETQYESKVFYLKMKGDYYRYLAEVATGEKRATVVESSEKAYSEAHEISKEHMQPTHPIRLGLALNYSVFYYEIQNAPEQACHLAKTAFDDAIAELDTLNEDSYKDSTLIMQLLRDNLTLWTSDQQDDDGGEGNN
Procedure: (§1) Drugging the hub protein 14-3-3 raises the challenge of selectivity, given that 14-3-3 binds several hundred phosphoprotein partners (Figure 4a).[54] We hypothesized that the interplay of chemical reactivity, the topology, and functionality of the composite binding pocket shaped by 14-3-3 and the interaction partner drives selective stabilization of the 14-3-3/ERRγ complex.[53] To validate selectivity, molecular locks 5 and 10 were tested against a panel of nine 14-3-3 client peptides in an FA assay, and the SF100 was determined for each 14-3-3 PPI (Figure 4b and Figures S18–S20). This client panel contained a diverse representation of 14-3-3 binding proteins, differing for example in size and hydrophobicity of the +1 amino acid. Importantly, clients PKR and RND3, each containing a +1 Cys, were included in the panel.
(§2) Figure S20. KD and SF100 plot – selectivity screen. […]
(§3) nine different client peptides in presence of DMSO (negative control) or 100 µM of compound 1, 5 or 10 (based on binding curves in Figure S19). […]
(§4) A pPROEX HTb expression vector encoding the human 14-3-3 protein gamma (14-3-3γ) with a N-terminal his6-tag was transformed by heat shock into NiCo21 (DE3) competent cells. […] Finally, the protein was concentrated to ∼60 mg/mL, analyzed Q-Tof LC/MS, and aliquots were flash-frozen for storage at −80 °C. […]

14-3-3γ/SOS1 complex = target: T2, 14-3-3γ/SOS1 complex (Homo sapiens, UniProt P61981); experiment: FA selectivity screen, SOS1 client peptide; format: binding; details: 100 μM compound, SOS1 peptide (+1 Ala)
T2 construct: made in house; host or cells: E. coli NiCo21 (DE3)
T2 sequence (P61981 1-247): T1 sequence (P61981 1-247)
Procedure: as §1, §2, §3, §4

CN(C)CCSSCCN(C)C(=O)c1ccc(C=O)c(F)c1 [compound 5]
off-target effect in client screen (14-3-3γ/PIN1 complex): minor off-target effects | off-target effect in client screen (14-3-3γ/SOS1 complex): minor off-target effects

Reference: publication PMC10064330, “Reversible Dual-Covalent Molecular Locking of the 14-3-3/ERRγ Protein–Protein Interaction as a Molecular Glue Drug Discovery Approach” (Journal of the American Chemical Society, 2023)
